Measurements as given in patent US12071411B2, “Inhibitors of HIF-2α and methods of use thereof” (ARCUS BIOSCIENCES, INC., priority 2021, dated 2024).

These compounds were tested against HIF-2α (Homo sapiens, UniProt Q99814) (assay: HIF-2α Luciferase Reporter Assay (serum free) in HIF-Luc-786-0 cells). Details: Opti-MEM, 786-0 reporter cells, 20 hours incubation.
Format: cell-based
Method: Generation of HIF-2α Luciferase 786-0 Cell Line:
Stable cell lines were generated by transducing 786-0 cells (ATCC, CRL-1932) with Cignal Lenti HIF Luc Reporter lentivirus (CLS-007L, Qiagen) according to the manufacturer's guidelines. In brief, 0.3×10^6 786-0 cells were transduced with lentivirus at a multiplicity of infection (MOI) of 25 for 24 hours. After transduction, cells were replenished with fresh RPMI 1640 Medium (Cat. No. 11875085, Thermo Fisher) supplemented with 10% FBS (Cat. No. A3160502, Gibco), 2 mM GlutaMAX™ (Cat. No. 35050-061, Invitrogen) and 100 units of penicillin and 100 μg of streptomycin/mL (Cat. No 15070063, Thermo Fisher) for another 24 hours. Antibiotic selection was performed in cell media containing 4 μg/mL of puromycin. After 7 days of antibiotic selection, stable pools of surviving cells were expanded and used in a luciferase reporter assay.
HIF-2α Luciferase Reporter Assay (Serum Free):
On day one, 20 uL of HIF-Luc-786-0 cells in Opti-MEM™ (Cat. No. 31985088, Thermo Fisher) were seeded into each well of a 384 well white opaque plate (Corning 3570) and incubated at 37° C. and 5% CO2. Twenty microliters of 2× test compounds in Opti-MEM™ were added to cells after 4 hours of incubation. Final assay conditions comprised 20,000 cells per well in 1% DMSO with test compound concentrations ranging from 50 uM to 0 uM. After 20 hours incubation at 37° C. and 5% CO2, luciferase activity was determined using ONE-Glo™ Luciferase Assay Reagent (E6110, Promega) following the manufacture's recommended procedure. Briefly, 40 uL of ONE-Glo™ luciferase reagents were added to each well and luciferase signals were measured using an Envision 2102 Multilabel Reader. Percentage maximum activity in each test well was calculated based on DMSO (maximum activity) and no cell control wells (baseline activity). The IC50 values of the test compounds were determined from compound dose response curves fitted using a standard four parameter fit equation.

Sequence of HIF-2α (Q99814 whole entry): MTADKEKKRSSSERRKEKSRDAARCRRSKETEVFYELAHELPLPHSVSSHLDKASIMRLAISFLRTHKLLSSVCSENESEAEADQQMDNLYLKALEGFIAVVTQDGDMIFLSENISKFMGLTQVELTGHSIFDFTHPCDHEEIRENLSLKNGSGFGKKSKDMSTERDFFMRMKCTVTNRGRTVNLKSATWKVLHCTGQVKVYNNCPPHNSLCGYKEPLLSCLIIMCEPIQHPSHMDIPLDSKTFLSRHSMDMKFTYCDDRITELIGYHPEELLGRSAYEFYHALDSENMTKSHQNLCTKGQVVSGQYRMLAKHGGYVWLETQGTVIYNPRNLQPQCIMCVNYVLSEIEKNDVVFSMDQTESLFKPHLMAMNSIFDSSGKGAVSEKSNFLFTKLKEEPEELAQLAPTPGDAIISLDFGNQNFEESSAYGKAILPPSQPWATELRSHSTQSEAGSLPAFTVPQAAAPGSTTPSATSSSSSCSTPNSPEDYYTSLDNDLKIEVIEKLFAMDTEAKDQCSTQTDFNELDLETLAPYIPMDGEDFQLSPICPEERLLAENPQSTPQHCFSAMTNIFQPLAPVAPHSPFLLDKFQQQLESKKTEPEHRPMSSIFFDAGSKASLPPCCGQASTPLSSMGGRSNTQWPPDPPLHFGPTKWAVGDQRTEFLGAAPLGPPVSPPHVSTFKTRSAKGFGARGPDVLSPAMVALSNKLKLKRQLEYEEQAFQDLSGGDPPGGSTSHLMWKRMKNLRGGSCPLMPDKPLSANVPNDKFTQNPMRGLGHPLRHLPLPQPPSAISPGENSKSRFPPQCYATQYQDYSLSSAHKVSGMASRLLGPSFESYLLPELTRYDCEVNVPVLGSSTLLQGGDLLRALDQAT

SMILES | IC50
O[C@H]1c2c(C(F)(F)F)nn(CC(F)(F)C3CC3)c2CCC1(F)F [Example 28, (4S)-1-(2-cyclopropyl-2,2-difluoroethyl)-5,5-difluoro-3-(trifluoromethyl)-4,5,6,7-tetrahydro-1H-indazol-4-ol] | > 1000 nM
O[C@H]1c2c(C(F)(F)F)nn([C@@H]3CCO[C@H](C(F)(F)F)C3)c2[C@@H](F)[C@H]1F (single isomer, unassigned) [150/151 DIAST-2] | > 1000 nM
COCC(C)CCn1nc(C(F)(F)F)c2c1CCC(F)(F)[C@H]2O (stereo partly drawn) [Example 6, (4S)-5,5-difluoro-1-(4-methoxy-3-methylbutyl)-3-(trifluoromethyl)-6,7-dihydro-4H-indazol-4-ol] | > 1000 nM
O[C@H]1c2c(C(F)(F)F)nn([C@H]3CC[C@H](F)C[C@@H]3F)c2CC1(F)F (single isomer, unassigned) [97/98 DIAST-2] | < 100 nM
CO[C@H](CCn1nc(S(C)(=O)=O)c2c1CC(F)(F)[C@H]2O)C(F)(F)F (racemic) [Example 107, (4S)-5,5-difluoro-3-methylsulfonyl-1-[(3R)-4,4,4-trifluoro-3-methoxybutyl]-4,6-dihydrocyclopenta[c]pyrazol-4-ol and (4S)-5,5-difluoro-3-methylsulfonyl-1-[(3S)-4,4,4-trifluoro-3-methoxybutyl]-4,6-dihydrocyclopenta[c]pyrazol-4-ol] | < 100 nM
O[C@H]1c2c(C(F)(F)F)nn([C@@H]3CCO[C@@H](C(F)(F)F)C3)c2CC1(F)F (single isomer, unassigned) [92/93 DIAST-1] | < 100 nM
C[C@]1(OC(F)F)C[C@@H](Cn2nc(C(F)(F)F)c3c2CCC(F)(F)[C@H]3O)C1 [Example 19, (4S)-1-[[3-(difluoromethoxy)-3-methylcyclobutyl]methyl]-5,5-difluoro-3-(trifluoromethyl)-6,7-dihydro-4H-indazol-4-ol] | > 1000 nM
O[C@H]1c2c(C(F)(F)F)nn(Cc3cc(C(F)(F)F)no3)c2CCC1(F)F [Example 4, (4S)-5,5-difluoro-3-(trifluoromethyl)-1-[[3-(trifluoromethyl)-1,2-oxazol-5-yl]methyl]-6,7-dihydro-4H-indazol-4-ol] | > 1000 nM
O[C@H]1c2c(C(F)(F)F)nn([C@H]3C[C@@H](COC(F)F)C3)c2CCC1(F)F [Example 105, (4S)-1-[3-(difluoromethoxymethyl)cyclobutyl]-5,5-difluoro-3-(trifluoromethyl)-6,7-dihydro-4H-indazol-4-ol] | > 1000 nM
O[C@H]1c2c(C(F)(F)F)nn([C@H]3CC[C@H](F)[C@H](F)C3)c2[C@H](F)C1(F)F (single isomer, unassigned) [Example 155] | > 1000 nM

The next lines start with the values.

IC50 | SMILES
> 1000 nM | CCC(F)(F)Cn1nc(C(F)(F)F)c2c1CCC(F)(F)[C@H]2O [Example 29, (4S)-1-(2,2-difluorobutyl)-5,5-difluoro-3-(trifluoromethyl)-6,7-dihydro-4H-indazol-4-ol]
< 100 nM | O[C@H]1c2c(C(F)(F)F)nn(-c3ccc(C(F)(F)F)nc3)c2CC1(F)F [Example 68, (4S)-5,5-difluoro-3-(trifluoromethyl)-1-[6-(trifluoromethyl)pyridin-3-yl]-4,6-dihydrocyclopenta[c]pyrazol-4-ol]
> 1000 nM | O[C@H]1c2c(C(F)(F)F)nn(C[C@@H](F)C3CC3)c2CCC1(F)F (single isomer, unassigned) [26/27 DIAST-1]
> 1000 nM | CO[C@H]1CCCC[C@H]1n1nc(C(F)(F)F)c2c1CC(F)(F)[C@H]2O (racemic) [Example 69, (4S)-5,5-difluoro-1-[(1R,2S)-2-methoxycyclohexyl]-3-(trifluoromethyl)-4,6-dihydrocyclopenta[c]pyrazol-4-ol and (4S)-5,5-difluoro-1-[(1S,2R)-2-methoxycyclohexyl]-3-(trifluoromethyl)-4,6-dihydrocyclopenta[c]pyrazol-4-ol]
> 1000 nM | F[C@H]1c2c(C(F)(F)F)nn(CCCC(F)(F)F)c2CCC1(F)F [Example 48, (4S)-4,5,5-trifluoro-1-(4,4,4-trifluorobutyl)-3-(trifluoromethyl)-6,7-dihydro-4H-indazole]
